Data: EP2787003A1, “Antimicrobial peptide produced by marine sponge-derived Bacillus subtilis” (priority 2013, dated 2014)

Columns and labels:
C. dubliniensis = test: Spot on lawn assay; format: cell-based, Candida dubliniensis; design: key: +, clear halo of growth inhibition; ++: multiple +, increased activity as assessed visually by the increased diameter of the inhibition zone; +++: multiple +, increased activity as assessed visually by the increased diameter of the inhibition zone; ++++: multiple +, increased activity as assessed visually by the increased diameter of the inhibition zone; +++++: multiple +, increased activity as assessed visually by the increased diameter of the inhibition zone; -, no inhibition; conditions: indicator C. dubliniensis
Method: (§1) Antimicrobial activity of isolate MMA7 against the indicator strains was initially assessed with a deferred antagonism assay as described by Phelan et al. (2012). Subsequent testing of supernatants, crude extracts and purified compounds was carried out with a well and/or a spot on lawn assays. Essentially, 5 µl of samples were spotted onto 20 ml agar plates seeded with the indicator strain to a final OD600 of 0.015, or 30 µl aliquots were applied to a 5 mm well made on identical plates.

C. sporogenes = test: Spot on lawn assay; format: cell-based, Clostridium sporogenes NCDO 1791; design: key: +, clear halo of growth inhibition; ++: multiple +, increased activity as assessed visually by the increased diameter of the inhibition zone; +++: multiple +, increased activity as assessed visually by the increased diameter of the inhibition zone; ++++: multiple +, increased activity as assessed visually by the increased diameter of the inhibition zone; +++++: multiple +, increased activity as assessed visually by the increased diameter of the inhibition zone; -, no inhibition; conditions: indicator C. sporogenes
Method: as §1

A. hydrophila = test: Spot on lawn assay; format: cell-based, Aeromonas hydrophila LMG 2844; design: key to Antimicrobial activity, spot on lawn assay: +, clear halo of growth inhibition; ++: multiple +, increased activity as assessed visually by the increased diameter of the inhibition zone; +++: multiple +, increased activity as assessed visually by the increased diameter of the inhibition zone; ++++: multiple +, increased activity as assessed visually by the increased diameter of the inhibition zone; +++++: multiple +, increased activity as assessed visually by the increased diameter of the inhibition zone; -, no inhibition
Method: as §1

α-chymotrypsin = α-chymotrypsin (Bos taurus, UniProt P00766); test: Susceptibility to proteolytic enzymes, bioactivity by spot on lawn assay; conditions: α-chymotrypsin 1 mg ml^-1, 37 °C, 1 h; indicator L. monocytogenes
P. aeruginosa = test: Spot on lawn assay; format: cell-based, Pseudomonas aeruginosa PAO1; design: key: +, clear halo of growth inhibition; ++: multiple +, increased activity as assessed visually by the increased diameter of the inhibition zone; +++: multiple +, increased activity as assessed visually by the increased diameter of the inhibition zone; ++++: multiple +, increased activity as assessed visually by the increased diameter of the inhibition zone; +++++: multiple +, increased activity as assessed visually by the increased diameter of the inhibition zone; -, no inhibition; conditions: indicator P. aeruginosa; *activity only detected with 4 to 5 times more peptide than that used for the other indicators
Method: as §1

V. anguillarum = test: Spot on lawn assay; format: cell-based, Listonella (Vibrio) anguillarum LMG 4410; design: key to Antimicrobial activity, spot on lawn assay: +, clear halo of growth inhibition; ++: multiple +, increased activity as assessed visually by the increased diameter of the inhibition zone; +++: multiple +, increased activity as assessed visually by the increased diameter of the inhibition zone; ++++: multiple +, increased activity as assessed visually by the increased diameter of the inhibition zone; +++++: multiple +, increased activity as assessed visually by the increased diameter of the inhibition zone; -, no inhibition
Method: as §1

Candida strains = test: Spot on lawn assay; format: cell-based; conditions: any of the Candida strains
Method: as §1
The activity of the purified peptide was tested together with its ASCE preparations, against the strains which were initially used as indicators on the colony overlay assay with the producing strain MMA7 (Table 4). […] No activity was detected against any of the Candida strains.

proteinase K = proteinase K (Parengyodontium album, UniProt P06873); test: Susceptibility to proteolytic enzymes, bioactivity by spot on lawn assay; conditions: proteinase K 1 mg ml^-1, 37 °C, 1 h; indicator L. monocytogenes
Chain of proteinase K (P06873 106-384): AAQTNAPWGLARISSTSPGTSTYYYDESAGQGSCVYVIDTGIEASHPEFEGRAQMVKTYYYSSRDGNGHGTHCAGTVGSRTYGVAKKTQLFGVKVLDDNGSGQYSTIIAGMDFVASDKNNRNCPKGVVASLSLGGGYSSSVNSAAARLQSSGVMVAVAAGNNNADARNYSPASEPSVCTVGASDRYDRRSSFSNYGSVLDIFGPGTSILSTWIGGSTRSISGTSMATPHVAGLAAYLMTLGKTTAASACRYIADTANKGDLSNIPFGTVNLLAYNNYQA

C. difficile = test: Spot on lawn assay; format: cell-based, Clostridium difficile 001; design: key: +, clear halo of growth inhibition; ++: multiple +, increased activity as assessed visually by the increased diameter of the inhibition zone; +++: multiple +, increased activity as assessed visually by the increased diameter of the inhibition zone; ++++: multiple +, increased activity as assessed visually by the increased diameter of the inhibition zone; +++++: multiple +, increased activity as assessed visually by the increased diameter of the inhibition zone; -, no inhibition; conditions: indicator C. difficile
Method: as §1

[1] = system: protease mixture from Streptomyces griseus; test: Susceptibility to proteolytic enzymes, bioactivity by spot on lawn assay; conditions: Streptomyces griseus protease 1 mg ml^-1, 37 °C, 1 h; indicator L. monocytogenes
L. monocytogenes = test: Thermal stability, bioactivity by spot on lawn assay
C. perfringens = format: cell-based, Clostridium perfringens NCDO 1799; design: key: +, clear halo of growth inhibition; ++: multiple +, increased activity as assessed visually by the increased diameter of the inhibition zone; +++: multiple +, increased activity as assessed visually by the increased diameter of the inhibition zone; ++++: multiple +, increased activity as assessed visually by the increased diameter of the inhibition zone; +++++: multiple +, increased activity as assessed visually by the increased diameter of the inhibition zone; -, no inhibition; conditions: indicator C. perfringens
Alteromonas sp. = test: Spot on lawn assay; format: cell-based; design: key to Antimicrobial activity, spot on lawn assay: +, clear halo of growth inhibition; ++: multiple +, increased activity as assessed visually by the increased diameter of the inhibition zone; +++: multiple +, increased activity as assessed visually by the increased diameter of the inhibition zone; ++++: multiple +, increased activity as assessed visually by the increased diameter of the inhibition zone; +++++: multiple +, increased activity as assessed visually by the increased diameter of the inhibition zone; -, no inhibition
Method: as §1

C=C1NC(=O)[C@@H]2CSC[C@@H](NC(=O)[C@@H]3CS[C@@H](C)[C@H]4NC(=O)[C@H](Cc5ccccc5)NC(=O)[C@H](NC(=O)[C@H](CCCNC(=N)N)NC(=O)[C@@H]5CSC[C@@H](NC(=O)[C@H](CCC(N)=O)NC(=O)[C@@H](NC(=O)[C@@H](NC(=O)/C(=C/C)NC(=O)[C@H](CCCCN)NC(=O)CNC(=O)[C@@H](NC(=O)/C(=C/C)NC(=O)[C@H](C)NC(=O)[C@H](Cc6c[nH]c7ccccc67)NC(=O)C(=O)CC)[C@@H](C)CC)[C@@H](C)CC)C(C)C)C(=O)N[C@@H](C(C)C)C(=O)N[C@@H](CCCCN)C(=O)N[C@@H](CCCCN)C(=O)N5)[C@H](C)SC[C@H](NC4=O)C(=O)NCC(=O)N3)C(=O)N[C@@H](CC(C)C)C(=O)NCC(=O)N[C@H](CSC[C@@H](C(=O)N[C@@H](CC(N)=O)C(=O)O)NC(=O)[C@H](CC(N)=O)NC1=O)C(=O)N2 [Subtilomycin]
Antimicrobial activity, spot on lawn assay (C. dubliniensis): -
Antimicrobial activity, spot on lawn assay (C. sporogenes): +++
Amount of peptide needed for detectable activity relative to that required to inhibit the Gram-positive indicators (A. hydrophila; A. hydrophila): four to five fold more peptide
Antimicrobial activity, spot on lawn assay (A. hydrophila; indicator A. hydrophila, *activity only detected with 4 to 5 times more peptide than that used for the other indicators): +*
Antimicrobial activity after proteolytic treatment (α-chymotrypsin): None of the treatments resulted in a decrease of activity
Antimicrobial activity, spot on lawn assay (P. aeruginosa): +*
Amount of peptide needed for detectable activity relative to that required to inhibit the Gram-positive indicators (V. anguillarum; V. anguillarum): four to five fold more peptide
Antimicrobial activity, spot on lawn assay (V. anguillarum; indicator V. anguillarum, *activity only detected with 4 to 5 times more peptide than that used for the other indicators): +*
Antimicrobial activity (Candida strains): No activity
Antimicrobial activity after proteolytic treatment (proteinase K): None of the treatments resulted in a decrease of activity
Antimicrobial activity, spot on lawn assay (C. difficile): -
Antimicrobial activity after proteolytic treatment [1]: complete loss of activity
Activity after heat treatment (L. monocytogenes; 100 °C for 1 hr, L. monocytogenes): no activity
Activity after heat treatment (L. monocytogenes; wide range of temperatures, including 100 °C for 30 minutes): stable
Antimicrobial activity, spot on lawn assay (C. perfringens): -
Amount of peptide needed for detectable activity relative to that required to inhibit the Gram-positive indicators (Alteromonas sp.; Alteromonas sp.): four to five fold more peptide
Antimicrobial activity, spot on lawn assay (Alteromonas sp.; indicator Alteromonas sp., *activity only detected with 4 to 5 times more peptide than that used for the other indicators): +*
